Columns and labels:
HIV-1 = details: AIDS patients; cited from earlier work
TNF = TNF production by macrophages activated by LPS; assay type: cell-based
Text: (§1) This example illustrates an experiment showing that an exemplary guanylhydrazone-substituted compound, CNI-1493 (N,N′-bis(3,5-diacetylphenyl)decanediamide tetrakis(amidinohydrazone) tetrahydrochloride) inhibited the p38 MAP kinase pathway. […] Further evidence for the mechanism of translation suppression was given by experiments using constructs in which the 5′UTR and the 3′UTR of TNF to drive expression of a reporter molecule. Both the 5′UTR and the 3′UTR regions of the TNF gene were required to elicit maximal translation suppression by CNI-1493. The effect of CNI-1493 on p38 MAPK was next determined as p38 MAPK has been implicated in the regulation of TNF translation.

HIV 1-LAV = assay: HIV replication in PHA-activated primary T cells, reverse transcriptase (RT) assay; assay type: cell-based
Experimental: (§2) Cell lysates were prepared for immunoprecipitation and immunoblotting 15 minutes after administration of LPS. In FIGS. 2B, 2C and 2D PHA-activated T cells were pretreated with control diluent or various concentrations of CNI-1493 for one hour, infected with HIV 1-LAV as in FIG. 1, and cultured for 10 days. FIG. 2B is a graph of dose-dependent inhibition by CNI-1493 of HIV-infection as assessed by the accumulation of reverse transcriptase (RT) at day 6 of culture. FIG. 2C is a graph of HIV inhibition by […] CNI-1493 over time. FIG. 2D is an immunoblot of phospho-p38 MAPK expression in HIV-1 infected cells on day 6 after culture treated with/without […] CNI-1493.
This example illustrates a role for the p38 MAP kinase pathway in HIV-1 infection of primary T cells, specifically addressing the hypothesis that activation of p38 MAPK is required for HIV-1 infection of primary T lymphocytes. For studies of human T cells, buffy coats were obtained by elutriation from normal human donors to the Long Island Blood Bank Services. Peripheral blood mononuclear cells (PBMC's) were isolated by density gradient centrifugation through Ficoll-Hypaque (Hypaque, Pharmacia). […]
Primary T cells activated with PHA were pretreated (or not) with CNI-1493 for one hour, infected with the LAV strain of HIV, and RT activity measured at various time points after infection, up to 10 days.

p38 MAP kinase = target: T1, p38 MAP kinase (Homo sapiens, UniProt Q16539); assay: p38 MAP kinase activity (GST-ATF2 phosphorylation) in Jurkat cells stimulated with anti-CD3/anti-CD28; assay type: cell-based
T1 construct: Endogenous p38 was immunoprecipitated with polyclonal p38 antibody; endogenous in cells; host or cells: Jurkat cells (ATCC)
Text: For studies of human T cells, buffy coats were obtained by elutriation from normal human donors to the Long Island Blood Bank Services. Peripheral blood mononuclear cells (PBMC's) were isolated by density gradient centrifugation through Ficoll-Hypaque (Hypaque. Pharmacia); typically one preparation yielded 200×10^6 cells. T cells were isolated by passing through a T cell column (R&D) as per manufacturer's instructions. Jurkat cells were obtained from ATCC and maintained in DMEM containing 10% heat-inactivated fetal bovine serum, antibiotics and L-glutamine.
A rabbit polyclonal antibody against p38, and the recombinant GST-AFT2 plasmid where a gift of Dr. Roger Davis (Howard Hughes Institute, Worcester, Mass.). A GST-AFT2 fusion protein was purified by affinity chromatography using glutatione-agarose, as per manufacturer's instructions (Pharmacia, Inc.). The human monoclonal anti-CD3 antibody was purchased from Pharmingen and a human monoclonal anti-CD28 antibody was purchased.
Whole cell lysates were prepared using kinase lysis buffer, containing a final concentration of 20 mM Tris pH 7.5, 10% glycerol, 1% Triton X-100, 0.137M NaCl, 25 mM B-glycerophosphate, 2 mM EDTA, 1 mM orthovanadate, 2 mM pyrophosphate, 10 μg/ml Leupeptin, 1 mM PMSF. Proteins were fractionated on a 12% SDS-PAGE gel, transferred by electrophoresis to PVDF membranes (Biorad, Inc.) and probed with a 1:1000 dilution of a rabbit polyclonal antibody that immunospecifically recognizes phosphorylated human p38 MAPK (Santa Cruz Biotechnology, Inc.). Binding to antibody was detected using enhanced chemiluminescence (Amersham International PLC).
2-5×10^6 cells were lysed after appropriate pretreatment in 500-1000 μl kinase lysis buffer and centrifuged at 14,000×g for 15 minutes at 4° C. Endogenous p38 was immunoprecipitated with polyclonal p38 antibody prebound to protein-A agarose for one hour at room temp. […]

p38 MAPK [1] = target: T2, p38 MAPK (Homo sapiens, UniProt Q16539); assay: p38 MAPK activity in human PBMC's after addition of LPS; assay type: cell-based; details: human PBMC's pretreated with compound
T2 construct: endogenous in cells; host or cells: human PBMCs
Text: as §1

p38 MAPK [2] = assay: phospho-p38 MAPK levels in HIV-1 infected T cells (immunoprecipitation/immunoblot); assay type: cell-based, human
Experimental: as §2
T cells were infected with HIV 1-LAV in the presence of […] 18-mer, refed every 3-4 days with media containing fresh oligomer and supernatants collected at various time points for RT assay. Simultaneously, cells were also plated, treated similarly and harvested for phospho-p38 MAPK levels assayed by immunoprecipitation at various time points as measured by RT assay. Shown in this figure is the effect of addition of sense and antisense p38 MAPK oligonucleotide on phospho-p38 levels and its correlation with HIV replication, as measured by RT.
Whole cell lysates were prepared using kinase lysis buffer containing a final concentration of 20 mM Tris pH 7.5, 10% glycerol, 1% Triton X-100, 0.137M NaCl, 25 mM B-glyceropliospliate. […]

MIP 1α and MIP 1β = assay: MIP-1α and MIP-1β levels by sandwich ELISA in HIV 1-LAV infected primary T cells; assay type: cell-based, human
Experimental: Assays were done in triplicate and error bars represent standard deviation of the mean.
Because ideal anti-HIV therapies would not interfere with the ability of the host to mount its own defense, it was also evaluated whether inhibition of the p38 MAP kinase signal transduction pathway inhibits chemokine production in T cells. Levels of MIP 1α and MIP 1β during LAV infection of primary T cells were not decreased by CNI-1493 (FIG. 4). MIP 1α and 1β levels dropped slightly late in HIV-1 infection (day 9).

human T lymphocytes = assay: T lymphocyte activation measured by IL-2 synthesis after a-CD3 and a-CD28 stimulation; assay type: cell-based; details: human T lymphocytes stimulated with a-CD3 and a CD28
Text: Without being limited by any theory regarding the mode of action of the multivalent guanylhydrazones, these compounds may work by disrupting the p38 MAPK pathway. p38 MAP kinase pathway plays a critical role in the activation of human T lymphocytes and this pathway is inhibited by the multivalent guanylhydrazone compounds. […] The activation of the p38 MAP kinase pathway was inhibited by the addition of a multivalent guanylhydrazone to the stimulated T lymphocytes. […] In addition, the assays of the present invention may include other in vivo assays to measure the effects of the test compounds on T cell activation. For example, test compounds may be assayed for their ability to inhibit activation of T cells. In such assays, test compounds may be added to T cells co-stimulated with a-CD3 and a-CD28. The stimulation of the T cells should result in the synthesis and secretion of cytokines, such as IL-2.

[3] = 1 μM 18-mer, day 7 and day 10 after infection, FIG. 3

T1 sequence (Q16539 whole entry): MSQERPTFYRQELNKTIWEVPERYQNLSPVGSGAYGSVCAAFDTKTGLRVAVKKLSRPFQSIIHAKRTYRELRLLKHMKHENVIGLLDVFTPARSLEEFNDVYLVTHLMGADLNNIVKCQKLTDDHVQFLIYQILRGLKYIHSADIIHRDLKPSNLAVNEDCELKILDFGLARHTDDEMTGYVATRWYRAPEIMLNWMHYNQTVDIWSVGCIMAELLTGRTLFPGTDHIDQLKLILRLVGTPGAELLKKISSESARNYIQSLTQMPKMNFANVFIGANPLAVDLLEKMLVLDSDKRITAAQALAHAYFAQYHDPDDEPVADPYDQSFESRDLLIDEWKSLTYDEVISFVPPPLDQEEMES
T2 sequence (Q16539 whole entry): as above

CC(C)c1nc(CN(C)C(=O)N[C@H](C(=O)N[C@@H](Cc2ccccc2)C[C@H](O)[C@H](Cc2ccccc2)NC(=O)OCc2cncs2)C(C)C)cs1 [ABT-538]
CD4 lymphocyte counts (HIV-1): rise substantially | plasma HIV-1 levels (HIV-1): decrease exponentially

CC(=NNC(=N)N)c1cc(NC(=O)CCCCCCCCC(=O)Nc2cc(C(C)=NNC(=N)N)cc(C(C)=NNC(=N)N)c2)cc(C(C)=NNC(=N)N)c1.Cl.Cl.Cl.Cl [CNI-1493, N,N′-bis(3,5-diacetylphenyl)decanediamide tetrakis(amidinohydrazone) tetrahydrochloride]
TNF production by macrophages activated by LPS (TNF): inhibit TNF production | synthesis of 26 kDA membrane form of TNF (TNF): blocked the synthesis | IC50 (HIV 1-LAV; primary T cells activated with PHA, pretreated one hour, LAV strain of HIV, RT activity, FIG. 2B, read-out: IC50 of inhibition of HIV replication in T-cells): ~500 nM | effect on anti-CD3 stimulated p38 MAPK activity (p38 MAP kinase; anti-CD3 alone): unaffected | inhibition of stimulated p38 MAPK activity (p38 MAP kinase; anti-CD28 stimulation (as worded: stimulation of p38 MAPK), dose of 1.5 μM): approximately 50% | inhibition of p38 MAPK activity on co-stimulation with anti-CD3 and anti-CD28 (p38 MAP kinase; dose of 1.5 μM): inhibited completely | p38 MAPK activity after the addition of LPS (p38 MAPK [1]): suppression of p38 MAPK activity | p38 MAP kinase activity in HIV-infected T cells (p38 MAPK [2]; 1 μM, FIGS. 2C, 2D): suppression of p38 MAP kinase activity | level of MIP 1α during LAV infection of primary T cells (MIP 1α and MIP 1β; FIG. 4): not decreased | level of MIP 1β during LAV infection of primary T cells (MIP 1α and MIP 1β; FIG. 4): not decreased | chemokine levels (MIP 1α and 1β) day 6 (MIP 1α and MIP 1β; day 6 of HIV-1 infection): slightly elevated | chemokine levels (MIP 1α and 1β) day 9 (MIP 1α and MIP 1β; day 9 of HIV-1 infection): normal | activation of T lymphocytes as measured by IL-2 synthesis (human T lymphocytes): inhibition of activation of the T lymphocytes

p38 MAP kinase antisense oligonucleotides: 18-mer phosphothiorate oligonucleotide, antisense to bp 324-341 of human p38 MAPK, 5′GTCTTGTTCAGCTCCTGC3′
HIV replication as measured by RT (HIV 1-LAV; [3]): decreased HIV replication | phospho-p38 MAPK activity (p38 MAPK [2]; [3]): decrease in phospho-p38 MAPK activity

Reference: patent publication US7741372B2, “Guanylhydrazones useful for treating diseases associated with T cell activation” (Cytokine PharmaSciences, Inc., priority 1996, dated 2010)
